From US11380440B1, “Marker screening and signal detection” (Cerner Innovation, Inc., priority 2011, dated 2022)

System: patients admitted to hospital with AMI

O=C(O)c1cn(C2CC2)c2cc(N3CCNCC3)c(F)cc2c1=O [Ciprofloxacin]
actual number of deaths (386 exposed patients of the 6,699 cohort (FIG. 4A column 415)): 129
expected number of deaths (Monte Carlo simulation, 2,000 burn-in and 50,000 iterations (FIG. 4A column 420)): 28.3

CC(C)c1c(C(=O)Nc2ccccc2)c(-c2ccccc2)c(-c2ccc(F)cc2)n1CC[C@@H](O)C[C@@H](O)CC(=O)O [atorvastatin]
in-house mortality percentage (count of deaths from the number receiving exposure) (Table 500 column 520, cohort of 6,699 AMI inpatients, 5.7% of the cohort died): 3.4%
